Test results reported in ChEMBL document CHEMBL1201862, “PubChem BioAssay data set” (2004).
Blank lines part the entries; values can stand above or below the molecule they belong to. Calls of active or inactive are those of the source.

Key:
[1] = target: T1, Neuropeptides B/W receptor type 1 (Homo sapiens, UniProt P48145); assay: Fluorescence-based dose response cell-based high throughput screening assay to identify antagonists of the G-protein coupled receptor 7 (GPR7). [Related pubchem assays: 1952 (Screening assay (GPR7 antagonists).), 1880 (Summary AID.)]; assay type: functional
T1 sequence (P48145 whole entry): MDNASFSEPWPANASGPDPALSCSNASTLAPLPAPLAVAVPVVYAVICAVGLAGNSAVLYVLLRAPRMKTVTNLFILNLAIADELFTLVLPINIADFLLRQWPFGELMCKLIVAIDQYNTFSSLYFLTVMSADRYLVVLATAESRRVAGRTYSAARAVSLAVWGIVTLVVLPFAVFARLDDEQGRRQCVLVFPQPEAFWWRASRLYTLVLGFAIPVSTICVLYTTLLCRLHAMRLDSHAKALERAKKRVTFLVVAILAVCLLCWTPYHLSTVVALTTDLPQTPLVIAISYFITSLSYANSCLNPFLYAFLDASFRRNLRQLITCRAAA

[2] = cytotoxicity toward NIH3T3 fibroblasts, dose response, counter-screen, cell-based, ATP luminescence, mouse fibroblasts (AID 2010); assay type: functional;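 further: cells exposed to compound for about 90 hours before reading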
[3] = target: Melanin-concentrating hormone receptor 1 (Homo sapiens, UniProt Q99705); assay: Fluorescence-based counterscreen for antagonists of the G-protein coupled receptor 7 (GPR7): cell-based high throughput dose response assay to identify antagonists of the melanin-concentrating hormone receptor 1 (MCHR1).; assay type: functional
[4] = inhibitors of intracellular T. cruzi replication, confirmation, NIH3T3 host cells, beta-gal luminescence (AID 2044); assay type: functional, cell-based;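 further: intracellular parasites grown in NIH/3T3 mouse fibroblasts as host cells; luminescent beta-galactosidase reporter signal from transgenic T. cruzi replicating inside host cells; inhibitors lower the luminescence signal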
Vero = assay: Vero E6 cell cytotoxicity, SAR follow-up, cytotoxicity control for West Nile virus antiviral project, synthesized analogs (AID 2244); assay type: functional; conditions: Chlorocebus sabaeus
[5] = target: Lysosomal acid glucosylceramidase (Homo sapiens, UniProt P04062); assay: Dose response cell-based high throughput screening assay to identify enhancers of beta-glucosidase activity. [Related pubchem assays: 784 ]; assay type: functional
[6] = target: T2, Eukaryotic translation initiation factor 2-alpha kinase 3 (Homo sapiens, UniProt Q9NZJ5); assay: Dose response cell-based high-throughput screening assay to measure PERK inhibition. [Related pubchem assays: 1416 ]; assay type: functional
[7] = target: T2, Eukaryotic translation initiation factor 2-alpha kinase 3; assay: Counterscreen assay for PERK inhibitors: Dose response cell-based high throughput screening assay to measure inhibition of PERK at 6 hours. [Related pubchem assays: 1522, 1416 ]; assay type: functional

T2 sequence (Q9NZJ5 whole entry): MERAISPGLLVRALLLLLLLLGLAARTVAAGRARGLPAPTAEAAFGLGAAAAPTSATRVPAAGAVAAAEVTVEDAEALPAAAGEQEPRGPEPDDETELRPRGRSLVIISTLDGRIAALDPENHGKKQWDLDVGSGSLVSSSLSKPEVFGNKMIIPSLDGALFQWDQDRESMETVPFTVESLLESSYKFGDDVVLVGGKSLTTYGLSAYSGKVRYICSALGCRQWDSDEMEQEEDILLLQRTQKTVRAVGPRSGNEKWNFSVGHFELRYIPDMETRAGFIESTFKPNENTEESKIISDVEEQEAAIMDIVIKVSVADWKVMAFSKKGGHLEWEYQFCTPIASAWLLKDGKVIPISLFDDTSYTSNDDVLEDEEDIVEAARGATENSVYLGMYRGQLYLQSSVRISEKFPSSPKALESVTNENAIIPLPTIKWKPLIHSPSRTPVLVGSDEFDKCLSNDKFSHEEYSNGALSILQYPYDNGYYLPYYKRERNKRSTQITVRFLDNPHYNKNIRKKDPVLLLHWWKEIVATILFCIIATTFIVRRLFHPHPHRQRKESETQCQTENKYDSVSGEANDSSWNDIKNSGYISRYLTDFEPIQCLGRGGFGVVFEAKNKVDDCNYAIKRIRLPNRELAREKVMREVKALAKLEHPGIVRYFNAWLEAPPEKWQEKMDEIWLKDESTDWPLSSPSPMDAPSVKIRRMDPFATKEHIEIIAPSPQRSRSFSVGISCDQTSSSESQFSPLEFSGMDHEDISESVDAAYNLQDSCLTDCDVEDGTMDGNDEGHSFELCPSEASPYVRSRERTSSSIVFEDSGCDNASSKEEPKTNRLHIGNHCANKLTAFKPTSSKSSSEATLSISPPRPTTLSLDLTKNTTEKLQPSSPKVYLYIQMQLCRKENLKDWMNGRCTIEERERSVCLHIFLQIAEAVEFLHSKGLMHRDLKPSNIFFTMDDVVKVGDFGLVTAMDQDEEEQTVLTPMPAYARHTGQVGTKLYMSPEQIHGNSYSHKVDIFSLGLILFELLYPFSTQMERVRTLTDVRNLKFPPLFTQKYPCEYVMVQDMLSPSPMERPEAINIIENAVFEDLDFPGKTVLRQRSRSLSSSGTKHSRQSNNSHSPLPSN
Sequence of Lysosomal acid glucosylceramidase (P04062 whole entry): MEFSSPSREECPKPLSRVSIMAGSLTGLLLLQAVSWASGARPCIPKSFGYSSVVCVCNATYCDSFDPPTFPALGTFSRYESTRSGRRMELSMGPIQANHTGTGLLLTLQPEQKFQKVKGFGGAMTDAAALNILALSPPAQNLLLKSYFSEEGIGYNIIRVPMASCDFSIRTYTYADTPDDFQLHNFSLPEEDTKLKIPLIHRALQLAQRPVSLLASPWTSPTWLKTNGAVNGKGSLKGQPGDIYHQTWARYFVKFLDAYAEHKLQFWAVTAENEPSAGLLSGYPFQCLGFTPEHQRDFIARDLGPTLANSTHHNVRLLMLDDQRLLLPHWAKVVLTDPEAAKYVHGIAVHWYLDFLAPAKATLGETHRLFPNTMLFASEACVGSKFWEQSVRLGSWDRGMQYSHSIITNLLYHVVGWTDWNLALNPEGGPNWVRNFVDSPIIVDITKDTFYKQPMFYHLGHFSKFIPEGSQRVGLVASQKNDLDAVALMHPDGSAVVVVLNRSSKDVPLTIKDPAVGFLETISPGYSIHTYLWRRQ
Sequence of Melanin-concentrating hormone receptor 1 (Q99705 whole entry): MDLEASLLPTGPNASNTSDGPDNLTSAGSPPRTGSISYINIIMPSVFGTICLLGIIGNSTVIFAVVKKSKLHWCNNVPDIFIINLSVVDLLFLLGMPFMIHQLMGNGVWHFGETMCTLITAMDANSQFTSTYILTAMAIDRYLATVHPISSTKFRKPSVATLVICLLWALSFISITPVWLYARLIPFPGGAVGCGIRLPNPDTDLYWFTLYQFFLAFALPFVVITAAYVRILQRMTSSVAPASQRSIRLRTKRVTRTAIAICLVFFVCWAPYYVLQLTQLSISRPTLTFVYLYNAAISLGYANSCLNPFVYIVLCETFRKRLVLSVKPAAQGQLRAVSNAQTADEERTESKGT

Structure (SMILES): CC(C)C(=O)N1CCN(c2ccccc2NC(=O)c2ccc([N+](=O)[O-])o2)CC1
- IC50 [1]: > 43.8 µM (not active)
- EC50 [2]: > 60 µM (not active)
- IC50 [3]: 64.4 µM (not active)
- EC50 [4]: 0.431 µM (active)

Structure (SMILES): COc1ccc(-c2csc(NC(=O)c3ccccc3F)n2)cc1
- CC50 (Vero): > 40 µM (active)

- EC50 [5]: > 10 µM (not active)
Structure (SMILES): CCOC(=O)N1CCC2(CC1)C(C#N)=C(N)Oc1c2c(C)nn1-c1cccc(Cl)c1

- EC50 [6]: > 55.7 µM (not active)
- EC50 [7]: > 55.7 µM (not active)
Structure (SMILES): Cc1cscc1NC(=O)/C=C/C(=O)O
